According to PMC8155809 (The Journal of General Physiology, 2021):

Target: T1, Human TREK-2 (KCNK10) crystal construct (Homo sapiens, UniProt P57789)
T1 construct: “crystal construct” protein (Gly67 to Glu340); made in house
T1 sequence (P57789 67-340 isoform P57789-4): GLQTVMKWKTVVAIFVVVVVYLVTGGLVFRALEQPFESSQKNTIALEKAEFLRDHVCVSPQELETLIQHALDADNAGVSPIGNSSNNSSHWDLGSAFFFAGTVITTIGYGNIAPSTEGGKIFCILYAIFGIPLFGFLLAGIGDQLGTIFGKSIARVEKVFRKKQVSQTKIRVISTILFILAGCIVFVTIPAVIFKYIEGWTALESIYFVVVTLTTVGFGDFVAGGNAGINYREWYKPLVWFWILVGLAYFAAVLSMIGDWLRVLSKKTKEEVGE
Test: Single-channel recordings of purified TREK-2 reconstituted in lipid bilayers
Type: biochemical
Conditions: for Po (single-channel open probability) / block of channel (Po): 10 µM NFx; for Po (single-channel open probability): +60 mV; for AC1, area of closed state 1 / AC2, area of closed state 2 / AC3, area of closed state 3 / AC4, area of closed state 4 / AC5, area of closed state 5 / τC1, mean lifetime of closed state 1 / τC2, mean lifetime of closed state 2 / τC3, mean lifetime of closed state 3 / τC4, mean lifetime of closed state 4 / τC5, mean lifetime of closed state 5 / τO, mean open time: 100 μM NFx
Protocol: Human TREK-2 (KCNK10) “crystal construct” protein (Gly67 to Glu340) was expressed and purified as previously described ([Dong et al., 2015]), with the exception that it was purified in 1% wt/vol n-octyl-β-D-glucoside, 0.1% wt/vol cholesteryl hemisuccinate. 1,2-Diphytanoyl-sn-glycero-3-phosphocholine was dissolved in chloroform to a concentration of 10 mM and stored at −20°C. The GUVs were then made by electroformation in a 1 M sorbitol solution using Vesicle Prep Pro (Nanion Technologies). Purified TREK-2 was then mixed with GUVs to a final concentration of ∼1–5 µg/ml and incubated overnight at 4°C with 0.5 mg/ml Bio-Beads (Bio-Rad) before use.
All electrophysiological recordings were performed with the Nanion Port-a-Patch system connected to an Axopatch 200B amplifier via a Digidata 1440A digitizer (Molecular Devices). Data were filtered at 5 kHz and recorded at a 200-kHz sampling rate with program Clampex (Molecular Devices). Experiments were performed in symmetrical 200 mM KCl and 10 mM HEPES (pH 6.0 with KOH) solutions. Single-channel currents were idealized using 50% threshold criterion with program Clampfit (Molecular Devices) at an imposed resolution of 50 µs. Only one open and one closed level were considered in the analysis; all subconductance states were neglected (these typically comprised less than 1% of open- and closed-level events of channels in the “high PO” mode). Analysis of amplitude and dwell-time distributions was performed in Origin (OriginLab Corporation) and an in-house software written in Mathematica (Wolfram Technologies). Empirical correction for open times due to missed events was performed as described previously ([Davies et al., 1992]). Critical time for burst analysis was determined using Colquhoun and Sakmann criterion ([Colquhoun and Sakmann, 1985]).

NCCC(Oc1ccc(C(F)(F)F)cc1)c1ccccc1 (stereo not drawn) [NFx, norfluoxetine]
Po (single-channel open probability) (channel with high Po (Fig. S5B)): 0.70 | Po (single-channel open probability) (channel with low Po (Fig. S5A)): 0.048 | block of channel (Po) (high-Po mode): 20 ± 0.02% | block of channel (Po) (standard mode): 23 ± 0.05% | AC1, area of closed state 1 (V 20 mV, high-Po mode): 74% | AC2, area of closed state 2 (V 20 mV, high-Po mode): 15.5% | AC3, area of closed state 3 (V 20 mV, high-Po mode): 4.4% | AC4, area of closed state 4 (V 20 mV, high-Po mode): 4.9% | AC5, area of closed state 5 (V 20 mV, high-Po mode): 1.5% | τC1, mean lifetime of closed state 1 (V 20 mV, high-Po mode): 0.041 ms | τC2, mean lifetime of closed state 2 (V 20 mV, high-Po mode): 0.30 ms | τC3, mean lifetime of closed state 3 (V 20 mV, high-Po mode): 1.3 ms | τC4, mean lifetime of closed state 4 (V 20 mV, high-Po mode): 23 ms | τC5, mean lifetime of closed state 5 (V 20 mV, high-Po mode): 90 ms | τO, mean open time (V 20 mV, high-Po mode): 0.53 ms | AC1, area of closed state 1 (V 40 mV, high-Po mode): 75% | AC2, area of closed state 2 (V 40 mV, high-Po mode): 13.7% | AC3, area of closed state 3 (V 40 mV, high-Po mode): 3.3% | AC4, area of closed state 4 (V 40 mV, high-Po mode): 6.2% | AC5, area of closed state 5 (V 40 mV, high-Po mode): 2.0% | τC1, mean lifetime of closed state 1 (V 40 mV, high-Po mode): 0.083 ms | τC2, mean lifetime of closed state 2 (V 40 mV, high-Po mode): 0.36 ms | τC3, mean lifetime of closed state 3 (V 40 mV, high-Po mode): 4.8 ms | τC4, mean lifetime of closed state 4 (V 40 mV, high-Po mode): 39 ms | τC5, mean lifetime of closed state 5 (V 40 mV, high-Po mode): 160 ms | τO, mean open time (V 40 mV, high-Po mode): 0.69 ms | AC1, area of closed state 1 (V 60 mV, high-Po mode): 75% | AC2, area of closed state 2 (V 60 mV, high-Po mode): 13.9% | AC3, area of closed state 3 (V 60 mV, high-Po mode): 3.5% | AC4, area of closed state 4 (V 60 mV, high-Po mode): 5.7% | AC5, area of closed state 5 (V 60 mV, high-Po mode): 1.6% | τC1, mean lifetime of closed state 1 (V 60 mV, high-Po mode): 0.059 ms | τC2, mean lifetime of closed state 2 (V 60 mV, high-Po mode): 0.31 ms | τC3, mean lifetime of closed state 3 (V 60 mV, high-Po mode): 2.1 ms | τC4, mean lifetime of closed state 4 (V 60 mV, high-Po mode): 41 ms | τC5, mean lifetime of closed state 5 (V 60 mV, high-Po mode): 160 ms | τO, mean open time (V 60 mV, high-Po mode): 0.60 ms | AC1, area of closed state 1 (V 80 mV, high-Po mode): 76% | AC2, area of closed state 2 (V 80 mV, high-Po mode): 11.9% | AC3, area of closed state 3 (V 80 mV, high-Po mode): 1.9% | AC4, area of closed state 4 (V 80 mV, high-Po mode): 7.7% | AC5, area of closed state 5 (V 80 mV, high-Po mode): 2.6% | τC1, mean lifetime of closed state 1 (V 80 mV, high-Po mode): 0.055 ms | τC2, mean lifetime of closed state 2 (V 80 mV, high-Po mode): 0.32 ms | τC3, mean lifetime of closed state 3 (V 80 mV, high-Po mode): 2.9 ms | τC4, mean lifetime of closed state 4 (V 80 mV, high-Po mode): 78 ms | τC5, mean lifetime of closed state 5 (V 80 mV, high-Po mode): 490 ms | τO, mean open time (V 80 mV, high-Po mode): 0.49 ms | AC1, area of closed state 1 (V 100 mV, high-Po mode): 77% | AC2, area of closed state 2 (V 100 mV, high-Po mode): 9.2% | AC3, area of closed state 3 (V 100 mV, high-Po mode): 2.5% | AC4, area of closed state 4 (V 100 mV, high-Po mode): 7.5% | AC5, area of closed state 5 (V 100 mV, high-Po mode): 4.1% | τC1, mean lifetime of closed state 1 (V 100 mV, high-Po mode): 0.064 ms | τC2, mean lifetime of closed state 2 (V 100 mV, high-Po mode): 0.30 ms | τC3, mean lifetime of closed state 3 (V 100 mV, high-Po mode): 1.9 ms | τC4, mean lifetime of closed state 4 (V 100 mV, high-Po mode): 72 ms | τC5, mean lifetime of closed state 5 (V 100 mV, high-Po mode): 220 ms | τO, mean open time (V 100 mV, high-Po mode): 0.44 ms | AC1, area of closed state 1 (V −20 mV, high-Po mode): 81% | AC2, area of closed state 2 (V −20 mV, high-Po mode): 10.7% | AC3, area of closed state 3 (V −20 mV, high-Po mode): 2.5% | AC4, area of closed state 4 (V −20 mV, high-Po mode): 5.0% | AC5, area of closed state 5 (V −20 mV, high-Po mode): 0.6% | τC1, mean lifetime of closed state 1 (V −20 mV, high-Po mode): 0.061 ms | τC2, mean lifetime of closed state 2 (V −20 mV, high-Po mode): 0.35 ms | τC3, mean lifetime of closed state 3 (V −20 mV, high-Po mode): 2.5 ms | τC4, mean lifetime of closed state 4 (V −20 mV, high-Po mode): 45 ms | τC5, mean lifetime of closed state 5 (V −20 mV, high-Po mode): 260 ms | τO, mean open time (V −20 mV, high-Po mode): 0.54 ms | AC1, area of closed state 1 (V −40 mV, high-Po mode): 85% | AC2, area of closed state 2 (V −40 mV, high-Po mode): 9.3% | AC3, area of closed state 3 (V −40 mV, high-Po mode): 1.7% | AC4, area of closed state 4 (V −40 mV, high-Po mode): 4.2% | AC5, area of closed state 5 (V −40 mV, high-Po mode): 0.2% | τC1, mean lifetime of closed state 1 (V −40 mV, high-Po mode): 0.069 ms | τC2, mean lifetime of closed state 2 (V −40 mV, high-Po mode): 0.35 ms | τC3, mean lifetime of closed state 3 (V −40 mV, high-Po mode): 2.5 ms | τC4, mean lifetime of closed state 4 (V −40 mV, high-Po mode): 52 ms | τC5, mean lifetime of closed state 5 (V −40 mV, high-Po mode): 520 ms | τO, mean open time (V −40 mV, high-Po mode): 0.51 ms | AC1, area of closed state 1 (V −60 mV, high-Po mode): 85% | AC2, area of closed state 2 (V −60 mV, high-Po mode): 9.5% | AC3, area of closed state 3 (V −60 mV, high-Po mode): 1.2% | AC4, area of closed state 4 (V −60 mV, high-Po mode): 3.4% | AC5, area of closed state 5 (V −60 mV, high-Po mode): 0.6% | τC1, mean lifetime of closed state 1 (V −60 mV, high-Po mode): 0.082 ms | τC2, mean lifetime of closed state 2 (V −60 mV, high-Po mode): 0.30 ms | τC3, mean lifetime of closed state 3 (V −60 mV, high-Po mode): 1.6 ms | τC4, mean lifetime of closed state 4 (V −60 mV, high-Po mode): 44 ms | τC5, mean lifetime of closed state 5 (V −60 mV, high-Po mode): 230 ms | τO, mean open time (V −60 mV, high-Po mode): 0.35 ms | AC1, area of closed state 1 (V −80 mV, high-Po mode): 89% | AC2, area of closed state 2 (V −80 mV, high-Po mode): 6.0% | AC3, area of closed state 3 (V −80 mV, high-Po mode): 1.0% | AC4, area of closed state 4 (V −80 mV, high-Po mode): 2.8% | AC5, area of closed state 5 (V −80 mV, high-Po mode): 0.8% | τC1, mean lifetime of closed state 1 (V −80 mV, high-Po mode): 0.110 ms | τC2, mean lifetime of closed state 2 (V −80 mV, high-Po mode): 0.37 ms | τC3, mean lifetime of closed state 3 (V −80 mV, high-Po mode): 9.5 ms | τC4, mean lifetime of closed state 4 (V −80 mV, high-Po mode): 58 ms | τC5, mean lifetime of closed state 5 (V −80 mV, high-Po mode): 140 ms | τO, mean open time (V −80 mV, high-Po mode): 0.27 ms | AC1, area of closed state 1 (V −100 mV, high-Po mode): 88% | AC2, area of closed state 2 (V −100 mV, high-Po mode): 8.0% | AC3, area of closed state 3 (V −100 mV, high-Po mode): 0.6% | AC4, area of closed state 4 (V −100 mV, high-Po mode): 2.2% | AC5, area of closed state 5 (V −100 mV, high-Po mode): 1.0% | τC1, mean lifetime of closed state 1 (V −100 mV, high-Po mode): 0.110 ms | τC2, mean lifetime of closed state 2 (V −100 mV, high-Po mode): 0.37 ms | τC3, mean lifetime of closed state 3 (V −100 mV, high-Po mode): 3.0 ms | τC4, mean lifetime of closed state 4 (V −100 mV, high-Po mode): 40 ms | τC5, mean lifetime of closed state 5 (V −100 mV, high-Po mode): 140 ms | τO, mean open time (V −100 mV, high-Po mode): 0.20 ms
